Measurements taken from patent US20260115261A1, “COLLAGEN PEPTIDE-BASED MEDICAMENT COMPOSITIONS AND USES THEREOF” (SUSTAIN HOLDINGS, LLC, priority 2023, published 2026).

Columns and labels:
[1] = tested on: dorsal root ganglion (DRG) neurons; test: DRG explant neurite outgrowth on MMP-1-digested collagen treated with CMP; assay type: cell-based, rat
Experimental: Plates were then rinsed with culture medium, and DRG neuronal cells were plated uniformly on plates having one of three surface coating conditions: (1) intact collagen; (2) MMP1-digested collagen; and (3) MMP1-digested collagen+CMP. Plates were then incubated at 37° C. for 24 hours or 48 hours, and then examined for morphology and neurite outgrowth by inverted brightfield microscopy.
To measure neurite outgrowth accurately, explants were visualized live using multifocal high-magnification phase contrast microscopy to optimize identification and measurement of the longest neurite (FIG. 2A, white arrow) and the size of the DRG explant growth field.

[2] = tested on: cerebrovasculature of ApoE−/− STZ mice; test: Diabetic atherosclerosis mouse model (ApoE−/− + STZ + high fat diet), cerebrovascular immunohistochemistry; assay type: in vivo
Experimental: Animals. All animal studies were conducted in accordance with the NIH guide for the care and use of laboratory animals and approved by the Vanderbilt University Institutional Animal Care and Use Committee. For the studies described, 12-week-old ApoE^−/− (#002052) or C57/B6J wildtype (WT) (#000664) mice were obtained from Jackson Laboratories. Mice were housed in a facility managed by Vanderbilt University Division of Animal Care with ad libitum access to water and standard diet followed by ad libitum access to 45% high fat diet (Research Diet Inc.; Catalog #D12451) starting at the correct study time point. Mice were subjected to 12-hr. light/dark cycle.
Animal Model of Diabetic Atherosclerosis. A diabetic atherosclerosis mouse model was implemented by combining ApoE^−/− mice with a streptozocin STZ-induced diabetic phenotype. Prior to STZ injection and diet change, baseline fasting blood glucose measurements and weights were obtained. To induce hyperglycemia ApoE^−/− mice were injected with STZ (50 mg/Kg in 10 mM sodium citrate, pH4.5; Millipore Sigma Catalog #S0130) intraperitoneally for five consecutive days. For the duration of STZ injections, mice received drinking water supplemented with 10% sucrose. One week after the final STZ injection, blood glucose levels were measured to confirm hyperglycemia. Mice were fasted for 6 hours prior to glucose measurement and then anesthetized with 2.5% isoflurane. Tail snips were taken, and one drop of blood was placed on test strips to obtain readings. Tails were then stemmed of bleeding using a silver nitrate applicator (Avoca reference number #7482) before returning mice to their cages. Any mice not registering as hyperglycemic were removed from the study. Remaining mice were then switched to a 45% high fat diet (HFD) to accelerate atherosclerotic plaque formation. After 1 week on HFD, mice were randomly assigned to receive intravenous CMP (n=5) or PBS (1×PBS, n=4) once weekly for 12 weeks. Upon conclusion of the study, mice were anesthetized via intraperitoneal pentobarbital injection followed by transcardial perfusion of 1×PBS and 4% paraformaldehyde (PFA). One day prior to sacrifice, mice were injected via tail vein injection with Sulfo-NHS-Biotin in sterile 1×PBS (Thermo-Fisher; Catalog #21335).
Intravenous Administration of CMPs. The CMP used in the present Example was a 21-aa single-strand peptide consisting of a 7-repeat sequence of a tripeptide of 4-fluoroproline (Flp), hydroxyproline (Hyp), and glycine (Gly), and abbreviated as (cis-Flp-Hyp-Gly)7 (SEQ ID NO:6). This CMP was manufactured using standard solid-phase peptide synthesis chemistry in limited quantity by Bachem, AG (Germany). CMP was dissolved in sterile 1×PBS at a concentration of […] and sterilized using a 0.22 µm filter (Millipore Sigma, Burlington, MA, USA). Mice were weighed and restrained in an apparatus designed for tail vein injection. Tails were heated to dilate the veins prior to weekly injection, and […] of CMP in sterile 1×PBS (vehicle) was injected to accommodate a final concentration in each animal of 0.1 mg/Kg. An additional batch of this CMP was produced with attachment of the TideFluor™ 2 moiety (AAT Bioquest, Sunnyvale, CA, United States) to the peptide as a fluorescent reporter. This labeled CMP was injected intravenously at 100 μM concentration (100 μL) to identify binding in WT vs. ApoE^−/−+STZ mice. CMP was injected 48 hours prior to sacrifice and again immediately before transcardial perfusion of 4% PFA. One day prior to euthanasia, tail veins were injected with Sulfo-NHS biotin to track vascular leakage. Sulfo-NHS Biotin (Thermo-Fisher; Catalog #21335) was dissolved in sterile 1×PBS (20 mg/mL) and sterilized through a […] filter. Mice were then restrained in tail vein apparatus and injected intravenously with 100 μL Sulfo-NHS biotin. […]

optic nerve = test: Optic nerve crush, axon repair after intravitreal injection; assay type: in vivo, mice; settings: for greater abundance of CTB-containing axon segments vs vehicle: measurements above the median, p≤0.02
Experimental: To further examine the effects of CMPs on nerve regeneration, optic nerve crush experiments were performed. This approach is a useful model of traumatic optic neuropathy and for assessing potential neuroreparative and neuroregenerative strategies (Cameron, E G et al., Bio-protocol 10(6) (Mar. 20, 2020), doi: 10.21769/BioProtoc.3559). Axon degeneration in this injury model also involves degradation of matrix collagen associated with robust tissue remodeling (Bernardo-Colon, A et al., Cell Death Dis. 9:1097 (2018); Sharma, T P et al., Mol. Neurodegener. 9:14 (2014)). Mice were subjected to […] nerve crush, and then three days later received an intravitreal injection of vehicle (DMSO) or of fluorescently tagged CMP 13A (SEQ ID NO:6). Optic nerves were longitudinally sectioned in the site of the injury two weeks following nerve crush, and sections were examined for axon length (via cholera toxin B labeling) and CMP localization (via fluorescence microscopy). Sections were also labeled with glial fibrillary acidic protein (GFAP) to localize astrocyte glia in the sections. […] Repaired axons were largely coincident with localized patches of CMP (FIG. 6C, arrows). Scale=200 μm (FIG. 6A) or 100 μm (FIGS. 6B,C).
Next, we quantitated the number of CTB+ green axon segments at discrete distances distal from the crush site (towards the brain). […] Even so, in both cohorts, there were a number of samples with few, if any, axons distal from the crush site, leading to substantial variability (FIG. 7B, inset). To better estimate the magnitude of the effect due to CMP 13A compared to vehicle, we pooled the measurements above the median at each location into three bins: 50-100 μm, 200-300 μm, and 400 μm and further from the injury site. […] Intact axon segments in these nerves were also longer than those in nerves from vehicle-treated eyes. The mean length of intact axon segments in nerves from CMP 13A-treated eyes was 51% greater than that in the vehicle cohort: 122.6±5.5 vs. 81.1±8.3 μm (p<0.001; FIG. 7D). Similarly, the mean for the longest 25 segments in the CMP 13A nerves was nearly 80% greater than that for vehicle nerves: 228.1±12.9 vs. 127.8±10.5 μm (p<0.001; FIG. 7E).

Question: Which “longest neurite outgrowth, greater than intact collagen” value ([1]; 48 hours, MMP1-digested collagen + CMP 100 μM, normalized to intact collagen, p<0.036) does the source give for “Pro-Flp-Gly-Pro-Flp-Gly-Pro-Flp-Gly-Pro-Flp-Gly-Pro-Flp-Gly-Pro-Flp-Gly-Pro-Flp-Gly [CMP 09C]” here?
Answer: 21%

Question: What about the “neurite outgrowth of DRG explants (phase contrast micrographs)” value ([1]; explants on damaged (MMP-1-digested) collagen treated with CMP 100 μM, 24 and 48 hours) of the same substance?
Answer: improved outgrowth

Question: With “Flp-Hyp-Gly-Flp-Hyp-Gly-Flp-Hyp-Gly-Flp-Hyp-Gly-Flp-Hyp-Gly-Flp-Hyp-Gly-Flp-Hyp-Gly [CMP 13A]” as the substance, how does the “vascular leakage of biotin” value ([2]; 3 months post-treatment, Sulfo-NHS biotin intravenous one day before euthanasia) read?
Answer: not observed

Question: And the “distance from individual astrocytes to the nearest blood vessel” value ([2]; CA1 (p<0.0001) and DG (p=0.0004))?
Answer: closer to blood vessels than in PBS-treated mice

Question: And the “GFAP density vs PBS” value ([2]; CA1 (p=0.07) and DG (p=0.06))?
Answer: not significantly different

Question: What about the “biotin intensity (secondary measure of vessel density) vs PBS” value ([2]; CA1, DG and cortex) of the same substance?
Answer: increased biotin labeling

Question: What about the “CD31 intensity vs PBS” value ([2]; CA1, cortex and DG (p=0.02, p<0.0001, p=0.01), 0.1 mg/Kg intravenous once weekly for 12 weeks) of the same substance?
Answer: increased

Question: What about the “increase of collagen IV intensity relative to PBS-treated controls” value ([2]; CA1, p=0.01) of the same substance?
Answer: 170%

Question: What about the “number of astrocyte soma vs PBS” value ([2]; CA1, p=0.02) of the same substance?
Answer: decreased

Question: What about the “area of CD31-positive vessels vs PBS” value ([2]; CA1 and cortex (p=0.001 and p<0.0001), (cis-Flp-Hyp-Gly)7 0.1 mg/Kg intravenous once weekly for 12 weeks) of the same substance?
Answer: significant increase

Question: What about the “CD31 intensity as a ratio of biotin intensity vs PBS” value ([2]; DG only (p=0.04)) of the same substance?
Answer: significantly increased

Question: And the “vessel (CD31) area vs control” value ([2]; DG, 0.1 mg/Kg intravenous once weekly for 12 weeks)?
Answer: no significant difference

Question: What about the “increase of collagen IV intensity relative to PBS-treated controls” value ([2]; DG, p=0.04) of the same substance?
Answer: 52%

Question: And the “number of astrocyte soma vs PBS” value ([2]; DG, p=0.31)?
Answer: not significantly different

Question: And the “vascular structure by biotin labeling” value ([2]; all brain regions, vs shorter, more fragmented vessels in PBS-treated mice)?
Answer: longer, more complex vessels with increased branching

Question: And the “increase of collagen IV intensity relative to PBS-treated controls” value ([2]; cortex, p=0.01)?
Answer: 175%

Question: What about the “greater abundance of CTB-containing axon segments vs vehicle” value (“greater abundance … vs vehicle” below) (optic nerve; 50-100 μm from injury site) of the same substance?
Answer: 29%

Question: What about the “greater abundance … vs vehicle” value (optic nerve; 200-300 μm from injury site) of the same substance?
Answer: 39%

Question: And the “greater abundance … vs vehicle” value (optic nerve; 400 μm and further from injury site)?
Answer: 96%

Question: And the “number of CTB+ axon segments at discrete distances distal from the crush site” value (optic nerve; fluorescently tagged CMP 13A intravitreal 3 days after crush, two weeks after crush, vs vehicle (DMSO))?
Answer: more axon segments than nerves from vehicle eyes at each location examined

Question: What about the “distance of CTB+ segments distal from the injury, some samples” value (optic nerve; two weeks after crush) of the same substance?
Answer: ≤ 1 mm

Question: What about the “mean for the longest 25 segments” value (optic nerve; two weeks after crush) of the same substance?
Answer: 228.1±12.9 μm

Question: What about the “mean length of intact axon segments” value (optic nerve; two weeks after crush) of the same substance?
Answer: 122.6±5.5 μm

Question: What about the “mean for the longest 25 segments, greater than vehicle nerves” value (optic nerve; two weeks after crush, p<0.001) of the same substance?
Answer: ~80%

Question: And the “mean length of intact axon segments, greater than vehicle cohort” value (optic nerve; two weeks after crush, p<0.001)?
Answer: 51%
